Article PMC8850660, “The P300 acetyltransferase inhibitor C646 promotes membrane translocation of insulin receptor protein substrate and interaction with the insulin receptor” (The Journal of Biological Chemistry, 2022)
pKd: −log10 of the molar value.

What was measured:
[1] = molecular target: T1, insulin receptor (InsR Kinase Assay) (Homo sapiens, UniProt P06213); test: InsR kinase assay, ADP-Glo (ADP production); assay type: biochemical; settings: 50 μM ATP, substrate peptide, room temperature; turnover to ADP only
T1 construct: commercial kinase from InsR Kinase Assay (Promega)
T1 sequence (P06213 1011-1382 limits assumed): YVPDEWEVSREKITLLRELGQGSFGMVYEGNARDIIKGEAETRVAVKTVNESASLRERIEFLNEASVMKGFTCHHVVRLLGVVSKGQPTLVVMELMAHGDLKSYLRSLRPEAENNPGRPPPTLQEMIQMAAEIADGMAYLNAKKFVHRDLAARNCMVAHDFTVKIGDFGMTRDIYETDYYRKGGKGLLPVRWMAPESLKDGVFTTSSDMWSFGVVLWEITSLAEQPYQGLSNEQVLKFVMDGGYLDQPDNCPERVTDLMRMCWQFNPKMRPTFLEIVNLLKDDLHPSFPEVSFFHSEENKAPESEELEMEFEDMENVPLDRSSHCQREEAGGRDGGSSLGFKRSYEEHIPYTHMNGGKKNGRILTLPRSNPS

[2] = molecular target: T1, insulin receptor (InsR Kinase Assay); test: InsR kinase assay, ADP-Glo (ADP production); assay type: biochemical; settings: activator; 50 μM ATP, substrate peptide, room temperature, 60 min
[3] = molecular target: T2, IRβ (unphosphorylated beta subunit of insulin receptor) (Homo sapiens, UniProt P06213); test: surface plasmon resonance (Biacore T200), IRβ immobilised on CM5; assay type: binding
T2 construct: gene INSR; beta subunit, commercial recombinant protein; unphosphorylated; immobilised on CM5 chip
T2 sequence (P06213 763-1382 limits assumed): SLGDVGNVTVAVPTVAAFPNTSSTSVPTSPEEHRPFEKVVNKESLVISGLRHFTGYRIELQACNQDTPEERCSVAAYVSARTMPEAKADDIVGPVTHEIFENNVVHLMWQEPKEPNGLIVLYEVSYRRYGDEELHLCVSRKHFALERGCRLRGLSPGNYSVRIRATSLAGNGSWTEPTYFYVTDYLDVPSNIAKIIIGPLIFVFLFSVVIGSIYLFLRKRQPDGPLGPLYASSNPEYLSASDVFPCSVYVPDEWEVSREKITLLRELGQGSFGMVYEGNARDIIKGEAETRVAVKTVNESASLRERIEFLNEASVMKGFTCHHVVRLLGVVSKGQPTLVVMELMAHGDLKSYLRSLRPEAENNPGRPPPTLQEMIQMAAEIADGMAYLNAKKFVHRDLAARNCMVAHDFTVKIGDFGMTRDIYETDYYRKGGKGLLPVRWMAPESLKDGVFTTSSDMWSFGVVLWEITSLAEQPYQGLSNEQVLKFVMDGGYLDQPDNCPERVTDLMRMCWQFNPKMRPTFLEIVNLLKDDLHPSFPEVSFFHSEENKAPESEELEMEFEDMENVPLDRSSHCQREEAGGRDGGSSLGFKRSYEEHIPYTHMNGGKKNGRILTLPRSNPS

Nc1ncnc2c1ncn2[C@@H]1O[C@H](COP(=O)(O)OP(=O)(O)OP(=O)(O)O)[C@@H](O)[C@H]1O [ATP] was tested, and the “InsR kinase assay, ADP-Glo (ADP production)” value [1] was “found a linear curve of ADP production (consumption of ATP by insulin receptor)”.
In the case of CC1=NN(c2ccc(C(=O)O)cc2)C(=O)C1=Cc1ccc(-c2cc(C)c(C)cc2[N+](=O)[O-])o1 [C646], the “% increase of kinase activity at 100 nM” value [2] was 50% and the pKd [3] was 5.36.
